Results on three compounds are retold here after US20120172375A1, “COMPOUNDS AND METHODS OF PROMOTING OLIGODENDROCYTE PRECURSOR DIFFERENTIATION” (priority 2008, published 2012).

Data set [1] has as its system tg[Plp:EGFP] zebrafish embryos. Description: Oligodendrocyte development in tg[Plp:EGFP] zebrafish embryos. Type of data set: in vivo. Conditions: 1, 10 and 100 nM from 24 hpf, analysed at 72 hpf. As for the experimental part: Transgenic-Proteolipid protein-enhanced green fluorescence protein (tg[plp:EGFP]) zebrafish was raised and maintained (Yoshida and Macklin, J. Neurosci Res, 81:1, 2005). Embryos were collected and staged by hour post fertilization (hpf). Compounds were added at 24 hpf stage at a concentration of 10 nM, 100 nM and 1 μM. After 48 hrs (72 hpf stage), zebrafish embryos were anesthetized in 0.02% tricaine, fixed in 4% paraformaldehyde, and washed in phosphate buffered saline (PBS). After treating with 10% Triton X-100 for 30 minutes, embryos were washed in PBS and blocked with 3% goat serum. Embryos were then incubated at 4° C. overnight with FITC-conjugated goat anti-GFP antibody (Abcam, Cambridge, Mass.) at a concentration of 1:1000. After several washes with PBS, the embryos were embedded in 100% glycerol and visualized on a Leica SP5 confocal microscope.
Embryos from transgenic-Plp-EGFP (tg[Plp:EGFP]) zebrafish were treated starting at 24 hours post fertilization (hpf) with compounds A, A-7 or B (1, 10 and 100 nM) or vehicle (DMSO). At 72 hpf effective treatments were analyzed by confocal microscopy after fixation and EGFP immunostaining of selected positive compounds.

Data set [2] in a line: Detection of small molecules in blood plasma and brain tissue by mass spectrometry. The following applies: for blood plasma level, average / brain level, average: 4 mice; for blood plasma level, average / brain level, average / Biological sample concentration (nM), Brain / Biological sample concentration (nM), Plasma: 100 mg/kg i.p., two doses in 5 days; for crossing of the blood brain barrier: two I.P. doses in a five day-term.
Description: The signal was optimized for each compound for positive or negative ionization by ESI (Electrospray ionization). A standard curve what made with pure compound solutions in DMSO up to 10 ng/ml. A MS2 scan was used to identify the progenitor ion and a product ion analysis was used to identify the best fragment for analysis and to optimize the collision energy. […] Samples were precipitated in 3 volumes of methanol with internal standard, centrifuged, and filtered. Filtered samples were analyzed by LC/MS/MS using either an Agilent 6410 mass spectrometer coupled with an Agilent 1200 HPLC and a CTC PAL chilled autosampler, all controlled by MassHunter software (Agilent), or an AB12000 mass spectrometer coupled with an Agilent 1100 HPLC and a CTC PAL chilled autosampler, all controlled by Analyst software (ABI). After separation on a C18 reverse phase HPLC column (Agilent, Waters, or equivalent) using an acetonitrile-water gradient system, peaks were analyzed by mass spectrometry (MS) using ESI ionization in MRM (Multiple Reaction Monitoring) mode.
4 mice per condition were injected i.p. (100 mg/kg), following the same experimental paradigm performed for the tissue analysis (two doses m a 5 days time).

In data set [3] the test system is cuprizone-fed C57B1/6J mice. Description: Remyelination after cuprizone-mediated demyelination, Black and Gold staining for total myelin. The following applies: i.p., two doses; for remyelination effect (Black and Gold stain, corpus callosum): 5-100 mg/kg. The class given is in vivo. As for the experimental part:
For in vivo experiments in mice, the cuprizone-mediated demyelination model was implemented as described elsewhere, (Sun et al., 2006; Wu et al., 2008). In brief, 9 week-old C57B1/J6 mice were fed with cuprizone supplemented chow (0.3%, Harlan) during 4-6 weeks. At the end of this period, while the mice were still on cuprizone diet, the animals were injected I.P. with the indicated concentrations of small molecules dissolved in DMSO. 72 hrs later, a second dose was administered and at that point the food was changed to regular chow. 48 hr after the second dose, the animals were sacrificed perfused with 4% paraformaldehyde (PFH) and the brain tissue processed or immunohistochemistry.
Brain tissue staining with Black and Gold to detect total myelin was performed in 30 μm microtome floating sections after three washes in a saline solution (0.9% NaCl). Subsequently, the tissue sections were submerged in a 0.1% Black and Gold solution in saline preheated to 60° C. for 5 min. The tissue was incubated in that solution for 8-10 min. or until achievement of purple color was observed. After washing several times with saline, the staining was fixed with a solution of 2% sodium thiosulfate for 3 min., washed with saline three times and finally mounted and visualized.
Demyelination in mouse brain induced by the copper chelator cuprizone administered in the diet is a well established animal model to study demyelination and subsequent remyelination after cuprizone withdrawal. The effect of cuprizone is evident in several brain areas being the demyeliantion of the corpus callosum the most reliable and consistent. In this study, we analyzed the effect of compounds A, A-7 and B on remyelination of six week cuprizone-fed C57B1/6J mice. Compounds were administered i.p. at the end of the sixth week (5-100 mg/kg) while the mice were still maintained on the cuprizone diet for three more days. At that point, a second injection of compounds was performed and then the mice were returned to regular chow for two more days to allow the natural remyelination process to take place. Mice were then sacrificed and the brain tissue prepared for immunohistochemistry.

For data set [4], the system named is oligodendrocyte progenitors. The experiment in a line: BrdU incorporation, proliferation of oligodendrocyte progenitors. Conditions: 10 nM, 48 h; Average±SEM; control 26.3±3.2; not statistically significant. The class given is cell-based, mouse. As for the experimental part:
A feasible effect of small molecules on oligodendrocyte progenitor cells is the induction of proliferation. We studied this possibility by treating cultures of oligodendrocyte progenitors, previously exposed to compounds A, A-7 and B (10 nM, 48 h) with BrdU (Bromodeoxyuridine, 10 μM added 24 hrs before the end of the treatment) and posterior immunostaining to detect BrdU positive cells. This is a well established method to determine cell division and proliferation by incorporation of the […]. After counting BrdU positive oligodendrocytes versus total cells in three independent experiments we observed a slight tendency of increased proliferation in cells treated with compounds A, A-7 or B. However, there were not statistically significant differences between treated and control cells (control: 26.3±3.2; compound A: 29.2±4.0; compound A-7: 28,9±2.1; compound B: 27.6±6.7; Values are represented as Average±SEM).

Another data set has as its system Akt. Description: Akt activity in cell extracts of oligodendrocyte precursors (phosphorylation of Akt substrate GSKα/β). Conditions: 10 μM, 48 h. Type of data set: cell-based. The source says:
Oligodendrocyte precursor differentiation requires the activation of a complex, highly controlled machinery that signals cells to stop migrating/proliferating and start extending processes and producing myelin components. A number of inducers and intracellular mediators of this process have been identified in vitro and in viva. […] Therefore, we studied whether our selected small molecules induced Akt signaling in oligodendrocyte precursors. We analyzed Akt activity in cell extracts of oligodendrocyte precursors treated with selected compounds (10 μM, 48 h), as determined by phosphorylation of Akt substrate GSKα/β.

Data set [5] relates to oligodendrocyte precursors. The experiment in a line: Oligodendrocyte precursor maturation after pre-incubation with PI3K, mTOR or Akt inhibitors (MBP immunostaining). The following applies: 48 h treatment; for effect of Akt inhibitor on compound-induced differentiation: Akt 1/2 inhibitor 1 μM added 1 hr before; for effect of PI3K inhibition on compound-induced oligodendrocyte precursor maturation: wortmannin 0.1 μM added 1 hr before. The class given is cell-based. As for the experimental part: Akt signaling has been extensively studied, and activation of phosphatidyl-inositol-3-kinase (PI3K) is generally accepted as a canonical upstream Akt activator. Downstream targets of Akt have also been identified and those include GSK, mTOR, p70SK, ASK amongst many others. In order to determine the relevance of […], signaling in the phosphorylation of Akt induced by compounds A and B and possible downstream targets of phosphorylated Akt, we pre-incubated the cells with inhibitors of PI3K (wortmannin, 0.1 μM), mTOR (rapamycin 0.1 μM) or a direct Akt ½ inhibitor (trifluoroacetate salt hydrate, 1 μM), all added 1 hr before the treatment with compounds A or B.
Cells were immunostained for MBP and after 48 h treatment with compound A or B the cells underwent morphology changes indicative of cell differentiation that included the generation of multiple cell processes and development of membranous structures.

Entries after “also recorded” stand apart in the source; their conditions may differ.

As for `CC(C)N1CCN(C(=O)COc2ccc(-c3ccccc3)cc2)CC1` [Compound A-7, 1-(Biphenyl-4-yloxy)acetyl-4-isopropylpiperazine], the “number of oligodendrocyte progenitor cells and fluorescence intensity in embryos” value in data set [1] was “clear increase; also recorded: increased accumulation of oligodendrocytes and enhanced differentiation”. In addition, in data set [2], the “blood plasma level, average” value turned out to be 9.2 nM. The “brain level, average” value in data set [2] is listed as 13.5 nM. The “Biological sample concentration (nM), Brain” value in data set [2] (Sample No. 1) was 16.6 nM; in data set [2] (Sample No. 2) it was 16.8 nM; in data set [2] (Sample No. 3) it was 4.21 nM; in data set [2] (Sample No. 4), 6.2 nM. Besides, the “Biological sample concentration (nM), Plasma” value in data set [2] (Sample No. 1) is 4.2 nM; in data set [2] (Sample No. 2), 5.3 L nM; in data set [2] (Sample No. 4), 3.6 nM. The “crossing of the blood brain barrier” value in data set [2] is reported as “effectively crossed the blood brain barrier”. Moreover, in data set [3], the “remyelination effect (Black and Gold stain, corpus callosum)” value (shortened to “remyelination effect”) was “highly significant remyelination effect; also recorded: enhance remyelination”.

Consider `CCS(=O)(=O)N1CCN(C(=O)COc2ccc(-c3ccccc3)cc2)CC1` [Compound A, 1-[(4-biphenylyloxy)acetyl]-4-(ethylsulfonyl)piperazine], for which the “BrdU positive oligodendrocytes versus total cells” value in data set [4] is on record as 29.2±4.0. In addition, the Akt phosphorylation entry in the data set on Akt is recorded as “clearly detected”. In addition, the “number of oligodendrocyte progenitor cells and fluorescence intensity in embryos” value in data set [1] is “clear increase; also recorded: increased accumulation of oligodendrocytes and enhanced differentiation”. In data set [2], the “blood plasma level, average” value amounted to 131.3 nM; the “brain level, average” value was 9.2 nM; the “crossing of the blood brain barrier” value is recorded as “effectively crossed the blood brain barrier”. Besides, in data set [2] (Sample No. 1), the “Biological sample concentration (nM), Brain” value is given as 4.6 nM and the “Biological sample concentration (nM), Plasma” value was determined as 90 nM. Besides, in data set [2] (Sample No. 2), the “Biological sample concentration (nM), Brain” value worked out at 14.7 nM and the “Biological sample concentration (nM), Plasma” value was determined as 149 nM. Moreover, in data set [2] (Sample No. 3), the “Biological sample concentration (nM), Brain” value stood at 13.2 nM and the “Biological sample concentration (nM), Plasma” value came out at 129 nM. For the same compound, in data set [2] (Sample No. 4), the “Biological sample concentration (nM), Brain” value amounted to 4.3 nM and the “Biological sample concentration (nM), Plasma” value is 157 nM. Also, the “myelin levels relative to the non-cuprizone-fed animals (Black and Gold)” value in data set [3] (100 mg/kg) amounted to 80%. In addition, the “remyelination effect” value in data set [3] is “highly significant at the lowest administered dose (5 mg/kg); also recorded: enhance remyelination”. In addition, in data set [5], the “effect of Akt inhibitor on compound-induced differentiation” value is reported as “completely blocked” and the “effect of PI3K inhibition on compound-induced oligodendrocyte precursor maturation” value is listed as “did not block”.

For `O=[N+]([O-])c1ccc(F)c(NS(=O)(=O)c2ccc(F)cc2)c1` [Compound B, 4-fluoro-N-(2-fluoro-5-nitrophenyl)benzenesulfonamide], in data set [4], the “BrdU positive oligodendrocytes versus total cells” value came to 27.6±6.7. For the same compound, in the data set on Akt, the Akt phosphorylation entry is “clearly detected”. Besides, in data set [3], the “remyelination effect” value is “did not detect a measurable induction of myelin recovery”. Further, in data set [5], the “effect of Akt inhibitor on compound-induced differentiation” value is “completely blocked” and the “effect of PI3K inhibition on compound-induced oligodendrocyte precursor maturation” value was “did not block”. In addition, the “effect of mTOR inhibition on compound-induced oligodendrocyte precursor maturation” value in data set [5] (rapamycin 0.1 μM added 1 hr before) was “totally avoided”.
